From PMC10763615, “Identification and engineering of potent cyclic peptides with selective or promiscuous binding through biochemical profiling and bioinformatic data analysis” (RSC Chemical Biology, 2023)
Where two headings read alike, the source gives them in different places. Positions of bridges follow the written chain, without caps; N, C: chain ends. Residues, ends and D or L forms follow the SMILES beside them.

Tests used:
FGF-R1C ECD [1] = biological target: T1, FGF-R1C ECD (Homo sapiens, UniProt P11362); assay: biochemical
T1 sequence (P11362 22-376 limits assumed): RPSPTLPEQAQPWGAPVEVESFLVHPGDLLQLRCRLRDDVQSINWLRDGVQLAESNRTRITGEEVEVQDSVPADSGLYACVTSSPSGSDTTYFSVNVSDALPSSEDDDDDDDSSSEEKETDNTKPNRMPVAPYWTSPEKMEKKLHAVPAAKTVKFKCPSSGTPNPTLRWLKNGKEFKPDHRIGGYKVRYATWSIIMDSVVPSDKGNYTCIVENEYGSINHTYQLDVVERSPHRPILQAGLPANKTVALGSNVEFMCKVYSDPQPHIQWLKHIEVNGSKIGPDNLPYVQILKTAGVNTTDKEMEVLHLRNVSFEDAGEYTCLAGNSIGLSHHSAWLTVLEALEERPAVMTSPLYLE
Method: (§1) KD affinity binding measurements were obtained by biolayer interferometry (BLI) instruments (Fortebio Octet HTX, or Sartorius Octet RH16 using either 8 or 16 channel mode.
(§2) For single concentration binding experiments, 50 μM peptide stocks in folding buffer were diluted 1:50 in mRNA display selection buffer (PBS pH7.4 supplemented with 0.05% Tween-20 and 0.01% BSA) in either a 96 well black plate, or a 384 well tilted bottom microplate (ForteBio). Biotinylated FGF-R protein was loaded onto Streptavidin-functionalised biosensors (ForteBio) and immersed into ~1 μM peptide to obtain association kinetics curves. Dissociation kinetics curves were obtained by subsequent immersion of ligand-associated loaded sensors into a 1:50 dilution of folding buffer in mRNA display selection buffer. Fitted KD data was adjusted for concentration as determined by UPLC-CAD.
(§3) For accurate multi-concentration KD determination, dilution series of each peptide were made, and association and dissociation kinetics curves were obtained as above for each concentration to fit a multi-point KD binding model. Data collection and analysis was performed using the Octet Instrument Control […]
(§4) concentration assay kinetics curves shown in supplementary Figure S 19-24.

FGF-R3C ECD [2] = biological target: T2, FGF-R3C ECD (Homo sapiens, UniProt P22607); assay: biochemical
T2 sequence (P22607 23-375 limits assumed): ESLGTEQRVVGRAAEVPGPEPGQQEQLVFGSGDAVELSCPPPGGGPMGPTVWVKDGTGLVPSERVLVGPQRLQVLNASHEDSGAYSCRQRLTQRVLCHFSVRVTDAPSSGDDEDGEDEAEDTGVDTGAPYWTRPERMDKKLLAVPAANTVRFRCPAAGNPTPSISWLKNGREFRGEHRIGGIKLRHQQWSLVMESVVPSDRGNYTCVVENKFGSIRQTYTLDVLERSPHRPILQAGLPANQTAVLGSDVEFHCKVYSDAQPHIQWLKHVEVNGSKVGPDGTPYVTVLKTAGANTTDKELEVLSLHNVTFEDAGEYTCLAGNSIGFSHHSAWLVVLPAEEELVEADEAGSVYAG
Method: as §1, §2, §3, §4

FGF-R4 ECD [3] = biological target: T3, FGF-R4 ECD (Homo sapiens, UniProt P22455); assay: multi-concentration BLI of purified peptides; format: binding; settings: purified trimer-18 library peptides
T3 construct: DNA constructs for the extracellular domain (ECD) of human FGF-; HPC4 (C); made in house; host or cells: HEK 293-6E
T3 sequence (P22455 22-369 limits assumed): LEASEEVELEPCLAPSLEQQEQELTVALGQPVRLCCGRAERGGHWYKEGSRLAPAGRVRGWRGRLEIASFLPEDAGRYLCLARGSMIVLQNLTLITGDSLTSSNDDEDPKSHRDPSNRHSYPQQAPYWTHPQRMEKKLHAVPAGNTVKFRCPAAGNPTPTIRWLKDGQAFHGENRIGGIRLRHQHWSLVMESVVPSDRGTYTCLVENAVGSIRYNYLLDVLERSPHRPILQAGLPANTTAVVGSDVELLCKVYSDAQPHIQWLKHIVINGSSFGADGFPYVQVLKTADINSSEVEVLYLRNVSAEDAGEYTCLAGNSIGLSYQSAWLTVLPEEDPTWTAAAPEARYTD
Method: as §1, §2, §3, §4

FGF-R1C ECD [4] = biological target: T1, FGF-R1C ECD; assay: biochemical; format: binding; set-up: DNA constructs for the extracellular domain (ECD) of human FGF-; HPC4 (C); made in house; host or cells: HEK 293-6E
Outline: (§5)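 Biotinylated FGF-R ECD on streptavidin biosensors was dipped into ~1 μM crude peptide in PBS pH7.4 with 0.05% Tween-20 and 0.01% BSA for association, then into buffer for dissociation, and followed by BLI. Fitted KD values were adjusted for peptide concentration measured by UPLC-CAD.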

FGF-R3C ECD [5] = biological target: T2, FGF-R3C ECD; assay: biochemical; format: binding; set-up: DNA constructs for the extracellular domain (ECD) of human FGF-; HPC4 (C); made in house; host or cells: HEK 293-6E
Outline: as §5

FGF-R4 ECD [6] = biological target: T3, FGF-R4 ECD; assay: single concentration BLI of crude peptides; format: binding; settings: crude T18 selection 1 (1:1:1) peptides, single concentration BLI (Table S4); read-out: KD (4)
Outline: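 BLI, streptavidin sensors loaded with biotinylated receptor ECD. Single-point: ~1 μM crude peptide, PBS pH7.4/0.05% Tween-20/0.01% BSA; association then dissociation in buffer. KD corrected for UPLC-CAD-determined concentration.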

Structure (SMILES) | Kd (FGF-R1C ECD [1]) [µM] | Kd (FGF-R3C ECD [2]) [µM] | Kd (FGF-R4 ECD [3]) [µM] | R4 KD (nM) (FGF-R4 ECD [3]) | Kd (FGF-R1C ECD [4]) [µM] | Kd (FGF-R3C ECD [5]) [µM] | Kd (FGF-R4 ECD [6]) [µM]
CSCC[C@H](NC(C)=O)C(=O)N[C@H]1CSSC[C@@H](C(=O)NCC(=O)N[C@@H](CO)C(=O)NCC(=O)N[C@@H](CO)C(=O)N[C@@H](CC(=O)O)C(=O)N[C@@H](Cc2ccc(O)cc2)C(=O)N[C@@H](CCCCN)C(=O)N[C@@H](CC(=O)O)C(=O)N[C@@H](CC(=O)O)C(=O)N[C@@H](CC(=O)O)C(=O)N[C@@H](CC(=O)O)C(=O)N[C@@H](CCCCN)C(N)=O)NC(=O)[C@H](CC(=O)O)NC(=O)[C@H](CCCCN)NC(=O)[C@H](C(C)C)NC(=O)[C@H](Cc2c[nH]c3ccccc23)NC(=O)[C@H](Cc2ccccc2)NC(=O)[C@H](C(C)C)NC(=O)[C@H](Cc2c[nH]cn2)NC(=O)[C@H](CC(C)C)NC(=O)[C@H](CCCCN)NC(=O)[C@H](CCCCN)NC(=O)[C@H](Cc2c[nH]c3ccccc23)NC(=O)[C@H](Cc2ccccc2)NC1=O [4.22] | 0.002 | 0.012 | < 0.001 | sub-nanomolar |  |  | 
CSCC[C@H](NC(C)=O)C(=O)N[C@H]1CSSC[C@@H](C(=O)NCC(=O)N[C@@H](CO)C(=O)NCC(=O)N[C@@H](CO)C(=O)N[C@@H](CC(=O)O)C(=O)N[C@@H](Cc2ccc(O)cc2)C(=O)N[C@@H](CCCCN)C(=O)N[C@@H](CC(=O)O)C(=O)N[C@@H](CC(=O)O)C(=O)N[C@@H](CC(=O)O)C(=O)N[C@@H](CC(=O)O)C(=O)N[C@@H](CCCCN)C(N)=O)NC(=O)[C@H](CCC(N)=O)NC(=O)[C@H](CCCCN)NC(=O)[C@H](Cc2ccccc2)NC(=O)[C@H](CC(C)C)NC(=O)[C@H](CC(C)C)NC(=O)[C@H](Cc2ccc(O)cc2)NC(=O)[C@H](Cc2ccc(O)cc2)NC(=O)[C@H](Cc2ccc(O)cc2)NC(=O)[C@H](CC(C)C)NC(=O)[C@H](Cc2c[nH]cn2)NC(=O)[C@H](CCCCN)NC(=O)[C@H](CC(N)=O)NC1=O [4.25] | > 1 | > 1 | 0.003 |  |  |  | 
CSCC[C@H](NC(C)=O)C(=O)N[C@H]1CSSC[C@@H](C(=O)NCC(=O)N[C@@H](CO)C(=O)NCC(=O)N[C@@H](CO)C(=O)N[C@@H](CC(=O)O)C(=O)N[C@@H](Cc2ccc(O)cc2)C(=O)N[C@@H](CCCCN)C(=O)N[C@@H](CC(=O)O)C(=O)N[C@@H](CC(=O)O)C(=O)N[C@@H](CC(=O)O)C(=O)N[C@@H](CC(=O)O)C(=O)N[C@@H](CCCCN)C(N)=O)NC(=O)[C@H](Cc2c[nH]c3ccccc23)NC(=O)[C@H](CC(C)C)NC(=O)[C@H](CC(C)C)NC(=O)[C@H](Cc2ccc(O)cc2)NC(=O)[C@H](Cc2ccc(O)cc2)NC(=O)[C@H](Cc2ccccc2)NC(=O)[C@H](CC(C)C)NC(=O)[C@H](C(C)C)NC(=O)[C@H](CCCCN)NC(=O)[C@H](CCCCN)NC(=O)[C@H](CC(N)=O)NC(=O)[C@H](CCC(=O)O)NC1=O [4.20] | > 1 | > 1 | 0.321 |  |  |  | 
CSCC[C@H](NC(C)=O)C(=O)N[C@H]1CSSC[C@@H](C(=O)NCC(=O)N[C@@H](CO)C(=O)NCC(=O)N[C@@H](CO)C(=O)N[C@@H](CC(=O)O)C(=O)N[C@@H](Cc2ccc(O)cc2)C(=O)N[C@@H](CCCCN)C(=O)N[C@@H](CC(=O)O)C(=O)N[C@@H](CC(=O)O)C(=O)N[C@@H](CC(=O)O)C(=O)N[C@@H](CC(=O)O)C(=O)N[C@@H](CCCCN)C(N)=O)NC(=O)[C@H](C)NC(=O)[C@H](CCCCN)NC(=O)[C@H](CCCNC(=N)N)NC(=O)[C@H](Cc2c[nH]c3ccccc23)NC(=O)[C@H](CC(C)C)NC(=O)[C@H](CC(C)C)NC(=O)[C@H](Cc2ccc(O)cc2)NC(=O)[C@H](Cc2ccc(O)cc2)NC(=O)[C@H](Cc2ccccc2)NC(=O)[C@H](CC(C)C)NC(=O)[C@H](CC(=O)O)NC(=O)[C@H](CC(N)=O)NC1=O [4.18] | > 1 | > 1 | 0.602 |  |  |  | 
CSCC[C@H](NC(C)=O)C(=O)N[C@H]1CSSC[C@@H](C(=O)NCC(=O)N[C@@H](CO)C(=O)NCC(=O)N[C@@H](CO)C(=O)N[C@@H](CC(=O)O)C(=O)N[C@@H](Cc2ccc(O)cc2)C(=O)N[C@@H](CCCCN)C(=O)N[C@@H](CC(=O)O)C(=O)N[C@@H](CC(=O)O)C(=O)N[C@@H](CC(=O)O)C(=O)N[C@@H](CC(=O)O)C(=O)N[C@@H](CCCCN)C(N)=O)NC(=O)[C@@H]2CCCN2C(=O)[C@H](CCCNC(=N)N)NC(=O)[C@H](Cc2c[nH]c3ccccc23)NC(=O)[C@@H]2CCCN2C(=O)[C@H](CCC(=O)O)NC(=O)[C@H](Cc2c[nH]cn2)NC(=O)[C@H](Cc2c[nH]c3ccccc23)NC(=O)[C@H](Cc2ccc(O)cc2)NC(=O)[C@H](C)NC(=O)[C@H](CCCCN)NC(=O)[C@H]([C@@H](C)O)NC(=O)[C@H](Cc2ccc(O)cc2)NC1=O [4.24] | > 1 | > 1 | > 1 |  |  |  | 
CC[C@H](C)[C@@H]1NC(=O)[C@H](Cc2ccccc2)NC(=O)[C@H](CCCCN)NC(=O)[C@H](CC(N)=O)NC(=O)[C@H](Cc2ccc(O)cc2)NC(=O)[C@@H](NC(=O)[C@H](CCSC)NC(C)=O)CSSC[C@@H](C(=O)NCC(=O)N[C@@H](CO)C(=O)NCC(=O)N[C@@H](CO)C(=O)N[C@@H](CC(=O)O)C(=O)N[C@@H](Cc2ccc(O)cc2)C(=O)N[C@@H](CCCCN)C(=O)N[C@@H](CC(=O)O)C(=O)N[C@@H](CC(=O)O)C(=O)N[C@@H](CC(=O)O)C(=O)N[C@@H](CC(=O)O)C(=O)N[C@@H](CCCCN)C(N)=O)NC(=O)[C@H](Cc2ccc(O)cc2)NC(=O)[C@H](CC(C)C)NC(=O)[C@H](C(C)C)NC(=O)[C@H](CCCCN)NC(=O)[C@H](Cc2ccc(O)cc2)NC(=O)[C@H](CC(C)C)NC(=O)[C@H]([C@@H](C)O)NC1=O [4.19] | > 1 | > 1 | 0.79 |  |  |  | 
CC[C@H](C)[C@@H]1NC(=O)[C@H](CCCCN)NC(=O)[C@H](Cc2ccc(O)cc2)NC(=O)[C@H](Cc2c[nH]c3ccccc23)NC(=O)[C@H]([C@@H](C)CC)NC(=O)[C@H](C(C)C)NC(=O)[C@H](CCC(=O)O)NC(=O)[C@@H](NC(=O)[C@H](CCSC)NC(C)=O)CSSC[C@@H](C(=O)NCC(=O)N[C@@H](CO)C(=O)NCC(=O)N[C@@H](CO)C(=O)N[C@@H](CC(=O)O)C(=O)N[C@@H](Cc2ccc(O)cc2)C(=O)N[C@@H](CCCCN)C(=O)N[C@@H](CC(=O)O)C(=O)N[C@@H](CC(=O)O)C(=O)N[C@@H](CC(=O)O)C(=O)N[C@@H](CC(=O)O)C(=O)N[C@@H](CCCCN)C(N)=O)NC(=O)[C@H](CCCCN)NC(=O)[C@H](CCCNC(=N)N)NC(=O)[C@H](Cc2c[nH]c3ccccc23)NC(=O)[C@H](CCC(N)=O)NC1=O (Ac-MCEVIWYKIQWRKCGSGSDYKDDDDK-NH2; disulfide 2-14) |  |  |  |  | > 10 | > 10 | 0.012
